From ChEMBL document CHEMBL3864124, “Tetrodecamycin: An unusual and interesting tetronate antibiotic” (2016)
In brackets after ≈: the same amount, converted by molar mass.

Columns and labels:
Assay type in all cases: functional
Staphylococcus aureus [1] = test: Antibacterial activity against methicillin resistant Staphylococcus aureus […] after 18 hrs by serial agar dilution method
[2] = Antibacterial activity against Photobacterium damselae subsp. piscicida after 18 hrs by serial agar dilution method
Micrococcus luteus = test: Antibacterial activity against Micrococcus luteus after 18 hrs by serial agar dilution method
Staphylococcus aureus [3] = test: Antibacterial activity against Staphylococcus aureus after 18 hrs by serial agar dilution method
Bacillus subtilis = test: Antibacterial activity against Bacillus subtilis after 18 hrs by serial agar dilution method
Staphylococcus aureus [4] = test: Antibacterial activity against […] Staphylococcus aureus ATCC 25923 after 18 hrs by serial agar dilution method; conditions: ATCC 25923, 18 h

Compound	MIC (Staphylococcus aureus [1])	MIC [2] [µg/mL]	MIC (Staphylococcus aureus [4]) [µg/mL]	further results
C[C@@H]1[C@@H]2OC3=C(C(=O)OC3CSCCO)C(=O)[C@@]1(C)[C@@H]1CCCC[C@@]1(O)[C@@H]2O (some centres undefined)	25 µg/mL	6.25 (≈ 15.2 µM)		
C=C1OC(=O)C2=C1O[C@@H]1[C@@H](O)[C@]3(O)CCCC[C@H]3[C@](C)(C2=O)[C@@H]1C	18.7 to 37.4 µM	1.56 to 18.7 (≈ 4.67 to 55.9 µM)		MIC (Micrococcus luteus): 18.7 to 37.4 µM (≈ 6.25 to 12.5 µg/mL); MIC (Staphylococcus aureus [3]): 18.7 to 37.4 µM (≈ 6.25 to 12.5 µg/mL); MIC (Bacillus subtilis): 18.7 to 37.4 µM (≈ 6.25 to 12.5 µg/mL)
C=C1OC(=O)C2=C1O[C@H]1C[C@](C)(CC(O)C1OC(=O)c1ccc3ccccc3c1)C2=O (some centres undefined)			8 (≈ 19 µM)	
C=C1OC(=O)C2=C1O[C@@H]1C=CC[C@@](C)(C1)C2=O			4 (≈ 17.2 µM)	
CC(=O)NCCCSCC1OC(=O)C2=C1O[C@@H]1[C@@H](O)[C@]3(O)CCCC[C@H]3[C@](C)(C2=O)[C@@H]1C (some centres undefined)	12.5 µg/mL	6.25 (≈ 13.4 µM)		
C[C@@H]1[C@@H]2OC3=C(C(=O)OC3(Br)CBr)C(=O)[C@@]1(C)[C@@H]1CCCC[C@@]1(O)[C@@H]2O (some centres undefined)	> 100 µg/mL	12.5 (≈ 25.3 µM)		
C=C1OC(=O)C2=C1O[C@H]1C[C@](C)(CC(O)C1O)C2=O (some centres undefined)			> 128	
C=C1OC(=O)C2=C1O[C@@H]1[C@@H](OC(=O)c3ccc4ccccc4c3)[C@]3(O)CCCC[C@H]3[C@](C)(C2=O)[C@@H]1C	1.61 µM	> 100		
C=C1OC(=O)C2=C1O[C@H]1C[C@](C)(CC(OC(=O)c3ccc4ccccc4c3)C1O)C2=O (some centres undefined)			128 (≈ 304 µM)	
CC1OC(=O)C2=C1O[C@@H]1[C@@H](O)[C@]3(O)CCCC[C@H]3[C@](C)(C2=O)[C@@H]1C (some centres undefined)	> 100 µg/mL	50 (≈ 149 µM)		
